# Results from ChEMBL document CHEMBL4825675, “Longipetalol A: A Highly Modified Triterpenoid from Dichapetalum longipetalum” (J Nat Prod, 2021).
# pIC50: −log10 of the molar value.
# System: RAW264.7
# Assay: Antiinflammatory activity in mouse RAW264.7 cells assessed as inhibition of LPS-induced NO production incubated for 24 hrs in presence of LPS by Griess reagent-based assay
# Format: functional, cell-based
# Details: RAW264.7, 24 h
row,SMILES,pIC50
1,C/C(=C\[C@H]1C[C@@](O)([C@@H]2CC[C@]34C[C@]23C=CC2[C@@]4(C)[C@H](O)C[C@H]3C(C)(C)/C(=C/C(=O)c4ccccc4)C(=O)C[C@]23C)C(=O)O1)CO (some centres undefined),5.80
2,C/C(=C\[C@H]1C[C@@](O)([C@@H]2CC[C@]34C[C@]23C=CC2[C@@]3(C)CC(=O)/C(=C\C(=O)c5ccccc5)C(C)(C)[C@@H]3CC(=O)[C@]24C)C(=O)O1)CO (some centres undefined),5.46
3,C/C(=C\[C@H]1C[C@@](O)([C@@H]2CC[C@]34C[C@]23C=CC2[C@]3(C)C(CC(=O)[C@]24C)C(C)(C)[C@@]2(CC(=O)c4ccccc4)O[C@@H]3OC2=O)C(=O)O1)CO (some centres undefined),4.94
4,C[C@@H]1C[C@H]2[C@@H]3CCC4=CC(=O)C=C[C@]4(C)[C@@]3(F)[C@@H](O)C[C@]2(C)[C@@]1(O)C(=O)CO [DEXAMETHASONE],5.16
